Experimental data published in patent publication US7618998B2, “Isoflavone derivatives and pharmaceutical compositions comprising the same” (Kaosiung Medical University, priority 2008, dated 2009).

Columns and labels:
[1] = test system: TRAP activity in RAW 264.7; test: Tartrate resistant acid phosphatase (TRAP) solution assay in RANKL-treated RAW 264.7 cells; type: cell-based; settings: for inhibition at 10 µM: Mus musculus, RAW264.7, 120 h, 5 days, RANKL 100 ng/mL
Description: 10^3 Raw 264.7 cells were cultured in 96-well plates with 100 ng/mL RANKL (R&D Systems, Minneapolis, Minn.). Cultures were incubated at 37° C. in 5% CO2 for 5 days with the addition of media containing fresh RANKL on day 3. In the TRAP solution assay, enzyme activity was examined by the conversion of α-naphthyl phosphate (4 mmol/liter; Sigma Chemical Co.) to α-naphthol in the presence of a 2 mol/liter L-tartrate solution (Sigma Chemical Co.) in each well. Absorbance was measured at 405 nm using a microplate reader (model 550; Bio-Rad Labs.) (Bandyopadhyay, S. et. el. Biochem. Pharmacol. 2006, 72, 184.).

[2] = test system: D1 cells; test: Cell viability by MTT assay in D1 cells; type: cell-based, Balb/c mice; settings: 10 μM, % of control
Description: (§1) D1-cell, which is a mesenchymal stem cell line cloned from bone marrow cells of Balb/c mice, were purchased from American Type Culture Collection (Rockville, Md.). D1-cells can be induced into osteoblasts, adipocytes and chondrocytes. D1-cells were maintained in DMEM (Gibco BRL, Gaithersburg, Md.) supplemented with 10% FBS, 100 U/ml of penicillin and streptomycin.
(§2) New synthetic compounds were dissolved in DMSO to a final concentration of 10 mM and stored at −20° C. The concentration used was 10 μM and freshly diluted to the medium with a final concentration of DMSO at 0.1%. Control cultures were treated with the same amount of DMSO as used in the corresponding experiments.
(§3) The MTT assay is a calorimetric assay based on the ability of the viable cells to reduce a soluble yellow tetrazolium salt to blue formazan crystals (Carmichael, J. et. el. Cancer Research 1987, 47, 936). After compound treatments, 350 μL of MTT solution ([…] in PBS) were added to each well and incubated for 4 hrs. DMSO was then added for another 0.5 hrs to thoroughly dissolve the dark blue crystals. The absorbance at 570 nm was measured with an ELISA reader. Inhibition of mitochondrial metabolism was shown as relative activity (% of control).

[3] = test system: hADSCs; test: Cell viability by MTT assay in hADSCs; type: cell-based, Human; settings: 10 μM, % of control
Description: (§4) Human adipose tissue derived stem cells (hADSCs), which is derived from adipose tissue, were selected an maintained in a keratinocyte SFM medium (Gibco BRL, Gaithersburg, Md.) supplemented with 5% FBS, 100 U/ml of penicillin and streptomycin.
as §2, §3

[4] = test system: D1 cells; test: Osteogenic differentiation, quantification of mineralization (Alizarin red S) in D1 cells; type: cell-based, Balb/c mice; settings: 10 μM, osteo-induction medium
Description: as §1, §2
(§5) Osteogenic differentiation was induced by culturing cells in an osteo-induction medium (OIM, 10% FBS, 0.1 μM dexamethasone, 10 mM β-glycerophosphate, and L-Ascorbic 2 phosphate 100 μM in low glucose DMEM) for 7-14 days. The extracellular matrix calcification was estimated by using an Alizarin red S stain (Carl, A. et al Anal. Biochem. 2004, 329, 77). The Alizarin red S-stained mineral was quantified by the osteogenesis quantification kit (CHEMICON®).

[5] = test system: MC3T3E1 cells; test: Osteogenic differentiation, quantification of mineralization (Alizarin red S) in MC3T3E1 cells; type: cell-based, C57BL/6 mice; settings: for Mineralization MC3T3E1 cells (12 days): 10 μM, osteo-induction medium
Description: MC3T3E1 cell, which is a preosteoblast cell line derived from calvaria of C57BL/6 mice, were obtained from the American Type Culture Collection (Rockville, Md.). MC3T3E1 cells were maintained in αMEM (Gibco BRL, Gaithersburg, Md.) supplemented with 10% FBS, 100 U/mL of penicillin and streptomycin.
as §2, §5

[6] = test system: hADSCs; test: Osteogenic differentiation, quantification of mineralization (Alizarin red S) in hADSCs; type: cell-based, Human; settings: 10 μM, osteo-induction medium
Description: as §4, §2, §5

Compound	inhibition at 10 µM [1] [%]	melting point [°C]	Anti-osteoporotic activities compared with compound 5c ([1]; overall statement on Tables 1 and 2 (TRAP inhibition and mineralization))	Cell viability D1 cells (3 days, MTT) [2] [%]	Cell viability hADSCs (3 days, MTT) [3] [%]	Mineralization D1 cells (7 days) [4] [%]	Mineralization MC3T3E1 cells (12 days) [5] [%]	Mineralization hADSCs (10 days) [6] [%]	Osteoclast inhibitory activity (inhibition of TRAP activity in RAW 264.7) relative to ipriflavone ([1]; more active than ipriflavone) [fold]	Promotion of osteoblast activity (mineralization in MC3T3E1 cells) relative to ipriflavone ([5]; more active than ipriflavone) [fold]
COc1ccc2c(=O)c(-c3ccc(OCC4CO4)cc3)coc2c1 (stereo not drawn) [Compound 3, 7-Methoxy-3-[4-(oxiran-2-ylmethoxy)phenyl]-4H-chromen-4-one]	107	153 to 154								
COc1ccc(-c2coc3cc(OCC4CO4)ccc3c2=O)cc1OC (stereo not drawn) [Compound 4, 3-(3,4-Dimethoxyphenyl)-7-(oxiran-2-ylmethoxy)-4H-chromen-4-one]	119		comparable anti-osteoporotic activities with that of compound 5c	76	84	112	977	429		
COc1ccc2c(=O)c(-c3ccc(OCC(O)CN4CCOCC4)cc3)coc2c1 (stereo not drawn) [Compound 5a, 3-[4-(2-Hydroxy-3-morpholinopropoxy)phenyl]-7-methoxy-4H-chromen-4-one]	0	117 to 118								
COc1ccc2c(=O)c(-c3ccc(OCC(O)CNC4CC4)cc3)coc2c1 (stereo not drawn) [Compound 5b]	103	105 to 106								
COc1ccc2c(=O)c(-c3ccc(OCC(O)CNC4CCCCC4)cc3)coc2c1 (stereo not drawn) [Compound 5c, 3-{4-[3-(Cyclohexylamino)-2-hydroxypropoxy]phenyl}-7-methoxy-4H-chromen-4-one]	119	125 to 126		82	97	78	976		4	10
COc1ccc(-c2coc3cc(OCC(O)CN4CCOCC4)ccc3c2=O)cc1OC (stereo not drawn) [Compound 6a, 3-(3,4-Dimethoxyphenyl)-7-(2-hydroxy-3-morpholinopropoxy)-4H-chromen-4-one]	0	135 to 136								
COc1ccc(-c2coc3cc(OCC(O)CN4CCNCC4)ccc3c2=O)cc1OC (stereo not drawn) [Compound 6b, 3-(3,4-Dimethoxyphenyl)-7-[2-hydroxy-3-(piperazin-1-yl)propoxy]-4H-chromen-4-one]	0	84 to 85								
COc1ccc(-c2coc3cc(OCC(O)CNC4CCCCC4)ccc3c2=O)cc1OC (stereo not drawn) [Compound 6c, 7-[3-(Cyclohexylamino)-2-hydroxypropoxy]-3-(3,4-dimethoxyphenyl)-4H-chromen-4-one]	120	70 to 71								
CC(C)Oc1ccc2c(=O)c(-c3ccccc3)coc2c1 [Ipriflavone, reference compound]	31			81	99	100	100	100		
